From patent US20240092758A1, “IMIDAZOLO INDAZOLE COMPOUNDS AS JAK INHIBITORS” (Theravance Biopharma R&D IP, LLC, priority 2021, published 2024) come the findings set out here.

SMILES strings stand for the structures.

The subject of series [1] is IL-13 induced STAT6 phosphorylation in BEAS-2B human lung epithelial cells. The series is described as follows: Cellular JAKI potency assay (BEAS-2B). In kind it is cell-based. The settings on record: Homo sapiens, BEAS-2B, BEAS-2B cells, read-out: BEAS2B pIC50 (converted). A digest of the protocol:
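BEAS-2B cells were preincubated with compound (0.1% DMSO) in HBSS/HEPES/BSA for 1 h at 37 °C, then stimulated with IL-13 (80 ng/mL before addition) for 30 min. After lysis, pSTAT6 (Tyr641) was quantified by AlphaLISA SureFire; IC50 from a 4-parameter fit of percent inhibition, reported as pIC50.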

In a further series the target is JAK3 (Homo sapiens (Human), UniProt P52333). The series is described as follows: Biochemical JAK kinase assay (LanthaScreen), JAK3. The following applies: read-out: JAK3 pKi (converted). The method, boiled down:
(§1)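 LanthaScreen format: phospho-STAT1 (pTyr701) detected with 2 nM Tb antibody after 10 mM EDTA quench. Kinase step used Km-level ATP and 200 nM STAT1 peptide, 1 h at ambient after 1 h pre-incubation. Inhibition fitted to IC50, reported as pKi.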
On the technique in general: TR-FRET usually uses a lanthanide donor and a delayed reading to cut background.

A further series addresses JAK1 (Homo sapiens (Human), UniProt P23458). The series is described as follows: Biochemical JAK kinase assay (LanthaScreen), JAK1. The following applies: for Ki: read-out: JAK1 pKi (converted). The method, boiled down:
as §1

In another series the target is JAK2 (Homo sapiens (Human), UniProt O60674). In words: Biochemical JAK kinase assay (LanthaScreen), JAK2. The settings on record: for Ki: read-out: JAK2 pKi (converted). A digest of the protocol: as §1
The target in the next series is TYK2 (Homo sapiens (Human), UniProt P29597). The series is described as follows: Biochemical JAK kinase assay (LanthaScreen), Tyk2. The following applies: read-out: Tyk2 pKi (converted). The method, boiled down:
as §1

Series [2] is described as follows: Pharmacokinetics in plasma and lung in mouse after oral aspiration administration. The format is in vivo. The following applies: male CD1 mice; for Lung Tissue AUC(0-24) / AUC(0-t): 0.2 mg/mL, two 25 μL increments; for Lung Tissue:Plasma AUC ratio: lung AUC to plasma AUC; for AUC(0-t): mouse, inhaled or intranasal, 0.01 mg/mouse, plasma, read-out: Plasma AUC(0-24). On the procedure: Plasma and lung concentrations of test compounds were quantified and pharmacokinetic parameters were calculated in the following manner. Male CD1 mice from Charles River Laboratories were used in the pharmacokinetic studies. Test compounds were individually formulated in 20% propylene glycol in pH 4 citrate buffer at a concentration of 0.2 mg/mL. Test compounds were administered in two, 25 μL increments introduced into the trachea of each mouse by oral aspiration using a calibrated pipette once the animal was anesthetized using isoflurane. Blood samples were collected as terminal collections via cardiac puncture at 0.167, 1, 4, 8, and 24 hr post-dosing. Following […] with CO2, a direct cardiac puncture was performed while avoiding puncturing the lung and blood was immediately transferred into K2EDTA tubes and placed on wet ice. Blood samples were centrifuged (Eppendorf centrifuge, 5804R) for 4 minutes at approximately 12,000 rpm at 4° C. to collect plasma. Intact lungs were also excised from these mice using the same timepoints (0.167, 1, 4, 8, and 24 hr). Lungs were washed with sterile water to remove any blood residue and were patted dry, weighed, and homogenized in 0.1% formic acid in water at a dilution of 1:3 (lung:water, weight/volume). Plasma and lung concentrations of test compounds were determined by LC-MS/MS analysis against analytical standards constructed into a standard curve in the test matrix. The pharmacokinetic parameters of test compounds were determined by non-compartmental analysis. For concentrations below the limit of quantification, zero was used for mean calculations. Mean values were not reported if more than 50% of the samples were below the limit of quantification at a timepoint, or if more than 50% of a calculated pharmacokinetic parameter was not reportable. The area under the concentration-time curve extrapolated to infinity (AUC(0-inf)) was calculated as follows: AUC(0-inf)=AUC(0-t)+Clast/k, where AUC(0-t) is the area under the concentration-time curve from the time of dosing to the last measurable concentration calculated by the linear trapezoidal rule, Clast is the last measurable concentration, and k is the first order rate constant associated with the terminal elimination phase, estimated by linear regression of time versus log concentration. The lung-to-plasma AUC ratio was determined as the ratio of the lung AUC(0-inf) in μg*hr/g to the plasma AUC(0-inf) in μg*hr/mL.

Chain of JAK2 (O60674 whole entry): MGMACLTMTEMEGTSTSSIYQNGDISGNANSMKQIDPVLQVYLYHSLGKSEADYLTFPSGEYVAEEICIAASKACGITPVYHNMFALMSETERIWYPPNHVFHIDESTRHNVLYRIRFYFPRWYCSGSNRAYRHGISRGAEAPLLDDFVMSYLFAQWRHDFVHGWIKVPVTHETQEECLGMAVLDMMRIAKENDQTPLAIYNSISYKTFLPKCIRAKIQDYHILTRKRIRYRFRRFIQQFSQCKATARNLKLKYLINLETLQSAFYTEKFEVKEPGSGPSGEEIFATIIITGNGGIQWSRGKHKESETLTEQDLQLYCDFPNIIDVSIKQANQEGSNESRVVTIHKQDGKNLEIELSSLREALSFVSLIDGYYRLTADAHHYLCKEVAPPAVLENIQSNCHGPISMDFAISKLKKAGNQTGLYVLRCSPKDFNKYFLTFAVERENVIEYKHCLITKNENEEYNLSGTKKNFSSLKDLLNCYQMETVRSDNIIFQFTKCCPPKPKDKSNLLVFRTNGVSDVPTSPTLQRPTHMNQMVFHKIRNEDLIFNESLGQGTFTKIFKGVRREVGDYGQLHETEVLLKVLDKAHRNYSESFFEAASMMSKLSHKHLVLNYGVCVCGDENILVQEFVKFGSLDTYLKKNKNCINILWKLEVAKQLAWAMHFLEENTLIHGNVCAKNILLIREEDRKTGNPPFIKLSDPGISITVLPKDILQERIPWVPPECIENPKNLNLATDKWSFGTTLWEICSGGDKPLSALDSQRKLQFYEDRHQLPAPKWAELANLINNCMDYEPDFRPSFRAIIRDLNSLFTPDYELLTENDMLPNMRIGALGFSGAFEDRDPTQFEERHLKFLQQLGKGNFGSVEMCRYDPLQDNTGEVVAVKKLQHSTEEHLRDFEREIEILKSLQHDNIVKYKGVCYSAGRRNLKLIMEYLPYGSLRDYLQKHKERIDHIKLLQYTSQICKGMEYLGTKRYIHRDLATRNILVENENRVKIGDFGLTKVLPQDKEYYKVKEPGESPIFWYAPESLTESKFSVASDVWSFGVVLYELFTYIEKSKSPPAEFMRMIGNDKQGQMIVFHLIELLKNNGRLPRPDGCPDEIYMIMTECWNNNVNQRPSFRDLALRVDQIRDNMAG
Chain of JAK1 (P23458 whole entry): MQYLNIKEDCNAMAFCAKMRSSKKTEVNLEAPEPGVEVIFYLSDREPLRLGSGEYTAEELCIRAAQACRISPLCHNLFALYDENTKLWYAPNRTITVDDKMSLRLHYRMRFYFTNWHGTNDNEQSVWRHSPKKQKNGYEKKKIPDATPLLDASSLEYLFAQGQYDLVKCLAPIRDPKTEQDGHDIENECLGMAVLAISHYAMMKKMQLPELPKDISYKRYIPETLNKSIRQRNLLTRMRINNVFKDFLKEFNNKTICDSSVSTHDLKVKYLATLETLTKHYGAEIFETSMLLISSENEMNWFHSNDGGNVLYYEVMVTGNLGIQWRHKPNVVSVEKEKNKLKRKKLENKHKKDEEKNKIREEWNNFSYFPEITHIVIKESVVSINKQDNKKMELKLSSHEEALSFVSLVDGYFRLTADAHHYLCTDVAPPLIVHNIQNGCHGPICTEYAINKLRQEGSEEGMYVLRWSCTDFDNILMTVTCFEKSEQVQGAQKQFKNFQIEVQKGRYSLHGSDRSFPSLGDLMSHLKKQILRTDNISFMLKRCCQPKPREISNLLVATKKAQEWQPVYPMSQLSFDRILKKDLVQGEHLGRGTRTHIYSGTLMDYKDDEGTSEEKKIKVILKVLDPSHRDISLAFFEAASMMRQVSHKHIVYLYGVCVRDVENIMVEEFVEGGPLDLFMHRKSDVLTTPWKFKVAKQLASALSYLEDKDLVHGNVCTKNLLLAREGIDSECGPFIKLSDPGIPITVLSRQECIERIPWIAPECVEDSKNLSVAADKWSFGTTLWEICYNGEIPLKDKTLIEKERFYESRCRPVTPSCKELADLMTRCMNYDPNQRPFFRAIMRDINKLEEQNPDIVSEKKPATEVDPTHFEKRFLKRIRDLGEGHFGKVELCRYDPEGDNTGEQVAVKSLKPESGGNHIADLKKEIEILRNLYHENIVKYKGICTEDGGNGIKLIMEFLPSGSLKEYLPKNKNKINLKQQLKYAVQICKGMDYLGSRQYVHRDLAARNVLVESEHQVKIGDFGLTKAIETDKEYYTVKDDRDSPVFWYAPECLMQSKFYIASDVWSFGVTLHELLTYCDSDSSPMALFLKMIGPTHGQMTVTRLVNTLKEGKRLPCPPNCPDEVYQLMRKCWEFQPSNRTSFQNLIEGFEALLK
Chain of JAK3 (P52333 whole entry): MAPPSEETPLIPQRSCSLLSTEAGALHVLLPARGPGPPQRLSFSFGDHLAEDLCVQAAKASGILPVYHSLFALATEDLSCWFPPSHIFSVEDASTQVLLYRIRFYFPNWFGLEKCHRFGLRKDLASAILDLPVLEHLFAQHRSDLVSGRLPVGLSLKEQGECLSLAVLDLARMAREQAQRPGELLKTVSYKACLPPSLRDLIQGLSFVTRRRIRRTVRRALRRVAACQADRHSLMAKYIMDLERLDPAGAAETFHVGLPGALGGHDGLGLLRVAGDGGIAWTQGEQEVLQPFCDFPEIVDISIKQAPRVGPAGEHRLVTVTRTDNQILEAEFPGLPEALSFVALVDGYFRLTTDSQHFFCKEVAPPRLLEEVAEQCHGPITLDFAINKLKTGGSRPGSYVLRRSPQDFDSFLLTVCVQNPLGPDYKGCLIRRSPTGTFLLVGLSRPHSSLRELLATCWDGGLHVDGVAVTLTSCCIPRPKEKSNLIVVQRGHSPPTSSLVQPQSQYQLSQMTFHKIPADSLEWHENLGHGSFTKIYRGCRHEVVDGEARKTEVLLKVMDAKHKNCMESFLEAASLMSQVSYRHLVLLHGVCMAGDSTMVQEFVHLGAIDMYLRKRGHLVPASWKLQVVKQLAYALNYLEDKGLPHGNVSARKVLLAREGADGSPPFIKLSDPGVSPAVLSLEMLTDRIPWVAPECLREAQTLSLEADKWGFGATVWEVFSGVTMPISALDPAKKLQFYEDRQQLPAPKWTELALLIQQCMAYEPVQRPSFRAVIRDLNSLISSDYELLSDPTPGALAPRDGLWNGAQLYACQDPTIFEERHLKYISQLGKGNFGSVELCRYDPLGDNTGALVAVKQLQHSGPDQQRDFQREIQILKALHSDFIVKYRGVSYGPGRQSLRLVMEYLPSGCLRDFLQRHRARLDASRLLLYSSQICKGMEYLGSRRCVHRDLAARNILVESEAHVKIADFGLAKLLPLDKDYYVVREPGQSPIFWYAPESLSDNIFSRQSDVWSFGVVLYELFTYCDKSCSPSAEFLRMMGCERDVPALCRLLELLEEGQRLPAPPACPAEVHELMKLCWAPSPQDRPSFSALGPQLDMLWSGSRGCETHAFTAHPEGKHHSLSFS
Chain of TYK2 (P29597 whole entry): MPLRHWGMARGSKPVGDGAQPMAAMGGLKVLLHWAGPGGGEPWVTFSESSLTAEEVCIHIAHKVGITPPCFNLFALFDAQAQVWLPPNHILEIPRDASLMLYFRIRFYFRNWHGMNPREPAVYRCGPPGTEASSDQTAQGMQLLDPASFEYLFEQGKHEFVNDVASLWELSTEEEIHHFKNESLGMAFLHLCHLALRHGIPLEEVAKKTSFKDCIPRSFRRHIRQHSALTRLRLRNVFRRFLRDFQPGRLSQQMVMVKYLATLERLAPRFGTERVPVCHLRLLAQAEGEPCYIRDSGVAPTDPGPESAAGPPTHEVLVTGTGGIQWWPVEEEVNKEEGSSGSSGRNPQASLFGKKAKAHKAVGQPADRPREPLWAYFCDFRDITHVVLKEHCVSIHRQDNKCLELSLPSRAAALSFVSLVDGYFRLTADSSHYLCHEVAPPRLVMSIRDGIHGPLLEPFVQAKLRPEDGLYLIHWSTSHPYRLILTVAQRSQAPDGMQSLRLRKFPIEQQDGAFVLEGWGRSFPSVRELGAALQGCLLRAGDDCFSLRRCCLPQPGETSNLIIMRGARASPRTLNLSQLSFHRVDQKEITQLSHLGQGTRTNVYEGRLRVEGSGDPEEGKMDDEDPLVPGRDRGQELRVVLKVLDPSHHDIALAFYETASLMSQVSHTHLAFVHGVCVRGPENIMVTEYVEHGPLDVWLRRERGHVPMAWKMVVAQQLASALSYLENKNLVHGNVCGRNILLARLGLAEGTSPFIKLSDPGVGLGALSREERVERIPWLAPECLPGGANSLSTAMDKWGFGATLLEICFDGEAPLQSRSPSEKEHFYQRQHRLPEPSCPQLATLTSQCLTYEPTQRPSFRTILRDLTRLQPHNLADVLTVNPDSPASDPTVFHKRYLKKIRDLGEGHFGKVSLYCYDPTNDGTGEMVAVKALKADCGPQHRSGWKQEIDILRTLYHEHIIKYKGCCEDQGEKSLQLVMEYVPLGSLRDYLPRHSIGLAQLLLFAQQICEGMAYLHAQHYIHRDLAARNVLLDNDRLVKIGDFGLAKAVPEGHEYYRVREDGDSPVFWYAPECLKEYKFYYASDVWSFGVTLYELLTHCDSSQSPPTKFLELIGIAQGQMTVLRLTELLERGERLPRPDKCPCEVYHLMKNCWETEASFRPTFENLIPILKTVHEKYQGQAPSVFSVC

For the molecule `CCc1cc(O)ccc1-c1ccc2c(-c3nc(C4=C[C@H](CO)NC4)c[nH]3)n[nH]c2c1F` [Compound 8, (R)-3-ethyl-4-(7-fluoro-3-(4-(5-(hydroxymethyl)-2,5-dihydro-1H-pyrrol-3-yl)-1H-imidazol-2-yl)-1H-indazol-6-yl)phenol], in series [1], the IC50 was 10 to 31.6 nM. In addition, the Ki on JAK3 is 0.1 to 1 nM. Moreover, the Ki on JAK1 was 0.1 to 1 nM. In addition, the “JAK2 pKi” value on JAK2 is reported as “A (A represents a pKi value ≥10 (Ki≤0.1 nM))”. Also, on TYK2, the Ki was 1 to 10 nM. In series [2], the “Lung Tissue AUC(0-24)” value was “B (B denotes a value between 50 and 100)”; the “Lung Tissue:Plasma AUC ratio” value is “C (C denotes a ratio between 100 and 200)”; the AUC(0-t) was 500 to 1000 ng·h/mL.

On to `CCc1cc(O)ccc1-c1ccc2c(-c3nc(C4=C[C@H](COC)NC4)c[nH]3)n[nH]c2c1F` [Compound 9, (R)-3-ethyl-4-(7-fluoro-3-(4-(5-(methoxymethyl)-2,5-dihydro-1H-pyrrol-3-yl)-1H-imidazol-2-yl)-1H-indazol-6-yl)phenol], for which the IC50 in series [1] is 3.16 to 10 nM. Moreover, the Ki at JAK3 is 0.1 to 1 nM. At JAK1, the “JAK1 pKi” value is reported as “A (A represents a pKi value ≥10 (Ki≤0.1 nM))”. In addition, on JAK2, the Ki was 0.1 to 1 nM. For the same molecule, on TYK2, the Ki is 10 to 100 nM. Moreover, in series [2], the “Lung Tissue AUC(0-24)” value is “C (C denotes a value between 9 and 50)”; the “Lung Tissue:Plasma AUC ratio” value was “C (C denotes a ratio between 100 and 200)”; the AUC(0-t) was less than 500 ng·h/mL.

As for `CCc1cc(O)ccc1-c1ccc2c(-c3nc(C4=CCN(C5CN(C)C5)CC4)c[nH]3)n[nH]c2c1` [Compound 15, 3-ethyl-4-(3-(4-(1-(1-methylazetidin-3-yl)-1,2,3,6-tetrahydropyridin-4-yl)-1H-imidazol-2-yl)-1H-indazol-6-yl)phenol], in series [1], the IC50 was 10 to 31.6 nM. For the same molecule, at JAK3, the Ki was 0.1 to 1 nM. In addition, the Ki at JAK1 is 0.1 to 1 nM. Further, the “JAK2 pKi” value at JAK2 was “A (A represents a pKi value ≥10 (Ki≤0.1 nM))”. Besides, the Ki at TYK2 was 1 to 10 nM. Further, in series [2], the “Lung Tissue AUC(0-24)” value was “B (B denotes a value between 50 and 100)”; the “Lung Tissue:Plasma AUC ratio” value is “C (C denotes a ratio between 100 and 200)”; the AUC(0-t) was less than 500 ng·h/mL.

In the case of `CCc1cc(O)ccc1-c1ccc2c(-c3nc(C4=CCN(C[C@@H]5COCCN5)CC4)c[nH]3)n[nH]c2c1` [Compound 17, (R)-3-ethyl-4-(3-(4-(1-(morpholin-3-ylmethyl)-1,2,3,6-tetrahydropyridin-4-yl)-1H-imidazol-2-yl)-1H-indazol-6-yl)phenol], in series [1], the IC50 is 3.16 to 10 nM. The Ki on JAK3 was 0.1 to 1 nM; on JAK1 it was 0.1 to 1 nM; on JAK2, 0.1 to 1 nM; on TYK2 it was 1 to 10 nM. The “Lung Tissue AUC(0-24)” value in series [2] was “B (B denotes a value between 50 and 100)”. Also, in series [2], the “Lung Tissue:Plasma AUC ratio” value was “C (C denotes a ratio between 100 and 200)”. For the same molecule, in series [2], the AUC(0-t) lay in the range of 500 to 1000 ng·h/mL.

As for `CCc1cc(O)ccc1-c1ccc2c(-c3nc(C4=CCN(C)CC4)c[nH]3)n[nH]c2c1F` [Example 21], in series [1], the IC50 was 3.16 to 10 nM. Further, the Ki at JAK3 is 0.1 to 1 nM. At JAK1, the “JAK1 pKi” value was “A (A represents a pKi value ≥10 (Ki≤0.1 nM))”. Besides, the “JAK2 pKi” value at JAK2 is on record as “A (A represents a pKi value ≥10 (Ki≤0.1 nM))”. In addition, at TYK2, the Ki was 0.1 to 1 nM. For the same molecule, in series [2], the “Lung Tissue AUC(0-24)” value was “C (C denotes a value between 9 and 50)”; the “Lung Tissue:Plasma AUC ratio” value is “D (D denotes a ratio between 50 and 100)”; the AUC(0-t) was less than 500 ng·h/mL.

Take `CCc1cc(O)ccc1-c1ccc2c(-c3nc(C4=CCN(C(C)C)CC4)c[nH]3)n[nH]c2c1F` [Example 22]: the IC50 in series [1] is 3.16 to 10 nM. Further, on JAK3, the Ki was 0.1 to 1 nM. For the same molecule, the Ki on JAK1 is 0.1 to 1 nM. Also, the “JAK2 pKi” value at JAK2 was “A (A represents a pKi value ≥10 (Ki≤0.1 nM))”. In addition, on TYK2, the Ki is 1 to 10 nM. Besides, in series [2], the “Lung Tissue AUC(0-24)” value is “C (C denotes a value between 9 and 50)”; the “Lung Tissue:Plasma AUC ratio” value was “D (D denotes a ratio between 50 and 100)”; the AUC(0-t) is less than 500 ng·h/mL.

Regarding `CCc1cc(O)ccc1-c1ccc2c(-c3nc(C4=CCN(C5CCC5)CC4)c[nH]3)n[nH]c2c1F` [Example 26], the IC50 in series [1] was 10 to 31.6 nM. The Ki on JAK3 was 0.1 to 1 nM; at JAK1, 0.1 to 1 nM; on JAK2, 0.1 to 1 nM; on TYK2, 1 to 10 nM. The “Lung Tissue AUC(0-24)” value in series [2] was “C (C denotes a value between 9 and 50)”. In series [2], the “Lung Tissue:Plasma AUC ratio” value was “E (E denotes a ratio between 30 and 50)”. Further, in series [2], the AUC(0-t) is less than 500 ng·h/mL.

Regarding `CCc1cc(O)ccc1-c1ccc2c(-c3nc(C4=CCN(C(C)C)C4)c[nH]3)n[nH]c2c1F` [Example 32], the IC50 in series [1] was 3.16 to 10 nM. For the same molecule, the Ki at JAK3 is 0.1 to 1 nM; on JAK1, 0.1 to 1 nM; at JAK2, 0.1 to 1 nM; at TYK2, 1 to 10 nM. In addition, the “Lung Tissue AUC(0-24)” value in series [2] was “C (C denotes a value between 9 and 50)”. Besides, the “Lung Tissue:Plasma AUC ratio” value in series [2] was “D (D denotes a ratio between 50 and 100)”. Besides, the AUC(0-t) in series [2] was less than 500 ng·h/mL.

Regarding `CCc1cc(O)ccc1-c1ccc2c(-c3nc(C4=CCCN(CCO)C4)c[nH]3)n[nH]c2c1F` [Example 44], the IC50 in series [1] was 3.16 to 10 nM. Further, the Ki at JAK3 was 0.1 to 1 nM; on JAK1, 0.1 to 1 nM; at JAK2 it was 0.1 to 1 nM; on TYK2 it was 1 to 10 nM. The “Lung Tissue AUC(0-24)” value in series [2] was “B (B denotes a value between 50 and 100)”. Further, in series [2], the “Lung Tissue:Plasma AUC ratio” value is “D (D denotes a ratio between 50 and 100)”. In series [2], the AUC(0-t) is 500 to 1000 ng·h/mL.

Take `CCc1cc(O)ccc1-c1ccc2c(-c3nc(C4=CCCN(CCCO)C4)c[nH]3)n[nH]c2c1F` [Example 45]: the IC50 in series [1] is 3.16 to 10 nM. Besides, the Ki at JAK3 was 0.1 to 1 nM; at JAK1, 0.1 to 1 nM; on TYK2 it was 1 to 10 nM. Also, the “JAK2 pKi” value at JAK2 was “A (A represents a pKi value ≥10 (Ki≤0.1 nM))”. In addition, the “Lung Tissue AUC(0-24)” value in series [2] was “C (C denotes a value between 9 and 50)”. For the same molecule, in series [2], the “Lung Tissue:Plasma AUC ratio” value is “C (C denotes a ratio between 100 and 200)”. The AUC(0-t) in series [2] was less than 500 ng·h/mL.

Take `CCc1cc(O)ccc1-c1ccc2c(-c3nc(C4=CCN(C(=O)[C@@H](N)C(C)(C)O)C4)c[nH]3)n[nH]c2c1` [Example 170]: the IC50 in series [1] was 10 to 31.6 nM. For the same molecule, on JAK3, the Ki is 0.1 to 1 nM. In addition, at JAK1, the Ki is 0.1 to 1 nM. Also, the “JAK2 pKi” value on JAK2 was “A (A represents a pKi value ≥10 (Ki≤0.1 nM))”. In addition, the Ki on TYK2 was 0.1 to 1 nM. In series [2], the “Lung Tissue AUC(0-24)” value is “B (B denotes a value between 50 and 100)”; the “Lung Tissue:Plasma AUC ratio” value is “C (C denotes a ratio between 100 and 200)”; the AUC(0-t) is less than 500 ng·h/mL.

As for `CCc1cc(O)ccc1-c1ccc2c(-c3nc(C4=CCN(C5CCN(C)CC5)CC4)c[nH]3)n[nH]c2c1F` [Example 185], the IC50 in series [1] was 10 to 31.6 nM. The Ki on JAK3 is 0.1 to 1 nM; on JAK1, 0.1 to 1 nM; at JAK2, 0.1 to 1 nM; at TYK2, 1 to 10 nM. In addition, the “Lung Tissue AUC(0-24)” value in series [2] was “A (For the Lung Tissue AUC(0-24), A denotes a value between 100 and 200)”. The “Lung Tissue:Plasma AUC ratio” value in series [2] was “B (B denotes a ratio between 200 and 300)”. The AUC(0-t) in series [2] fell in the range of 500 to 1000 ng·h/mL.
